# Test results reported in US20140302556A1, “CONTROLLING O-GLYCOSYLATION IN LOWER EUKARYOTES” (priority 2011, published 2014).
# How the values were obtained:
# [1] = system: Pichia pastoris mutant strain YGLY17156; assay: Growth on YSD agar plates containing PMTi-4; type: cell-based; details: agar plate, 24° C.
# [2] = system: Pichia pastoris mutant strain YGLY17157; assay: Growth on YSD agar plates containing PMTi-4; type: cell-based; details: agar plate, 24° C.
# Protocol: (§1) UV mutagenesis was performed as described by Winston (Curr. Protoc. Mol. Biol. 82:13.3B.1-13.3B.5 (2008)). Briefly, Pichia pastoris strain YGLY19376 (GFI5.0, pmt4Δ, expressing a recombinant IgG1) was grown in 40 mL YSD liquid medium over night at 24° C. Upon reaching an OD600 of five, a 10 mL aliquot of culture was transferred into an empty 100 mm sterile Petri dish, and treated, with the lid off, with 12 mJ/cm^2 of UV irradiation. After the UV treatment, the Petri dish was immediately covered with aluminum foil (to prevent photo-induced DNA repair). The mutagenized cells were allowed to recover at 24° C. for three hours in the dark. Two mL of the recovered YGLY19376 was then centrifuged at 2,000 rpm for five minutes. The cell pellet was then re-suspended in 400 μL 2% BMGY media and subsequently plated onto YSD agar plates containing 2 μg/mL or 4 μg/mL PMTi-4 PMT inhibitor (Example 4 compound of U.S. Published Application No. 20110076721 having the structure
# After seven days incubation at 24° C., colonies were picked and re-streaked onto fresh PMTi-4-containing plates at the above concentrations.
# [3] = system: un-mutagenized YGLY19376 parent strain; assay: Growth on agar plates containing PMT inhibitor; type: cell-based, Pichia pastoris; details: agar plate
# Protocol: as §1
# [4] = system: non-mutagenized parent strain YGLY19376; assay: 1 L DasGip MeOH fed-batch fermentation with PMTi-4 (lysis, IgG1 titer, glycans); type: cell-based, Pichia pastoris
# Protocol: (§2) Fed-batch fermentations, IgG1 purifications, characterization of N- and O-glycan profiles as well as all other analytical assays, were performed essentially as previously described (Barnard et al., J. Ind. Microbiol. Biotechnol. 37(9): 961-71 (2010); Potgieter et al., J. Biotechnol. 139(4):318-25 (2009)).
# (§3) Both PMT inhibitor-resistant mutant strains (YGLY17156 and YGLY17157), as well as the non-mutagenized parent strain YGLY19376 were grown in 1 L DasGip fermentors using a standard MeOH fed-batch fermentation protocol (See for example, Potgieter et al., J. Biotechnol. 139(4): 318-25 (2009) and Hopkins et al., Glycobiol. August 12. [Epub ahead of print] PubMed PMID: 21840970 (2011)).
# (§4) The robustness of the strains was determined by examining the fermentation cell cultures under microscope. Depending on the proportion of cell debris, a lysis-score was assigned from 0.5 to 5, with 5 being the worst lysis.
# The inoculum seed flasks were inoculated from yeast patches (isolated from a single colony) on agar plates into 0.1 L of 4% BSGY in a 0.5-L baffled flask. Seed flasks were grown at 180 rpm and 24° C. (Innova 44, New Brunswick Scientific) for 48 hours. Cultivations were done in 1 L (fedbatch-pro, DASGIP BioTools) bioreactors. Vessels were charged with 0.54 L of 0.22 μm filtered 4% BSGY media and autoclaved at 121° C. for 45 minutes. […]
# [5] = system: PMTi-4-resistant mutant strain YGLY17156; assay: 1 L DasGip MeOH fed-batch fermentation with PMTi-4 (lysis, WCW, IgG1 titer, glycans); type: cell-based, Pichia pastoris
# Protocol: as §2, §3, §4
# (§5) The inoculum seed flasks were inoculated from yeast patches (isolated from a single colony) on agar plates into 0.1 L of 4% BSGY in a 0.5-L baffled flask. Seed flasks were grown at 180 rpm and 24° C. (Innova 44, New Brunswick Scientific) for 48 hours. Cultivations were done in 1 L (fedbatch-pro, DASGIP BioTools) bioreactors. Vessels were charged with 0.54 L of 0.22 μm filtered 4% BSGY media and autoclaved at 121° C. for 45 minutes. After sterilization and cooling; the aeration, agitation and temperatures were set to 0.7 vvm, 400 rpm and 24° C. respectively. The pH was adjusted to and controlled at 6.5 using 30% ammonium hydroxide. Inoculation of a prepared bioreactor occurred aseptically with 60 mL from a seed flask. Agitation was ramped to maintain 20% dissolved oxygen (DO) saturation. After the initial glycerol charge was consumed, denoted by a sharp increase in the dissolved oxygen, a 50% w/w glycerol solution containing 5 mg/L biotin and 32.3 mg/L PMTi4 was triggered to feed at 3.68 mL/hr for eight hours. During the glycerol fed-batch phase 0.375 mL of PTM2 salts were injected manually. Completion of the glycerol fed-batch was followed by a 0.5 hour starvation period and initiation of the induction phase. A continuous feed of a 50% v/v methanol solution containing 2.5 mg/L biotin and 6.25 mL/L PTM2 salts was started at a flat rate of 2.16 mL/hour. Injections of 0.25 mL of 1.9 mg/mL PMTi-4 (in methanol) were added after each 24 hours of induction. In general, individual fermentations were harvested within 36-110 hours of induction. The culture broth was clarified by centrifugation (Sorvall Evolution RC, Thermo Scientific) at 8500 rpm for 40 min and the resulting supernatant was submitted for purification.
# [6] = system: PMTi-4-resistant mutant strain YGLY17157; assay: as above; type: cell-based, Pichia pastoris
# Protocol: as §2, §3, §4, §5
compound,measurement,setting,value
CC(C)COCC(Oc1cc(/C=C2\SC(=S)N(CC(=O)O)C2=O)ccc1OCCc1ccc(F)cc1)c1ccccc1 (stereo not drawn) [PMTi-4],PMTi-4 concentration at which robust growth is exhibited,[1],at least 4 μg/mL
same,PMTi-resistance level,[2],at least 1 μg/mL
same,PMT inhibitor concentration at which strain failed to grow,[3],≤ 0.1 µg/mL
same,O-glycan Occupancy (mannitol/protein),[4]; IgG1,1.0 mol/mol
same,Lysis at 24° C. Day 2,"[4]; lysis-score 0.5 to 5, 5 worst",3
same,O-glycan Occupancy (mannitol/protein),[5]; IgG1,2.4 mol/mol
same,Lysis at 24° C. Day 1,"[5]; lysis-score 0.5 to 5, 5 worst",0.5
same,Lysis at 24° C. Day 3,"[5]; lysis-score 0.5 to 5, 5 worst",1
same,Lysis at 24° C. Day 4,"[5]; lysis-score 0.5 to 5, 5 worst",1.5
same,WCW Day 4,[5]; wet cell weight,236
same,O-glycan Occupancy (mannitol/protein),[6]; IgG1,0.6 mol/mol
same,Lysis at 24° C. Day 1,"[6]; lysis-score 0.5 to 5, 5 worst",0.5
same,Lysis at 24° C. Day 3,"[6]; lysis-score 0.5 to 5, 5 worst",1
same,Lysis at 24° C. Day 4,"[6]; lysis-score 0.5 to 5, 5 worst",1
same,WCW Day 4,[6]; wet cell weight,303
